Results from ChEMBL document CHEMBL4507298 (2021).

Assays:
[1] = molecular target: High affinity nerve growth factor receptor (Homo sapiens) (UniProt P04629); settings: Compound concentration 1000.0 nM
[2] = molecular target: Dual specificity mitogen-activated protein kinase kinase 5 (Homo sapiens) (UniProt Q13163); settings: Compound concentration 1000.0 nM
[3] = system: Proto-oncogene tyrosine-protein kinase receptor Ret (Homo sapiens), P07949 [M918T]; settings: Compound concentration 1000.0 nM
[4] = molecular target: Cyclin-dependent kinase 3 (Homo sapiens) (UniProt Q00526); settings: Compound concentration 1000.0 nM
[5] = molecular target: Serine/threonine-protein kinase LATS1 (Homo sapiens) (UniProt O95835); settings: Compound concentration 1000.0 nM
[6] = molecular target: Cytoplasmic tyrosine-protein kinase BMX (Homo sapiens) (UniProt P51813); settings: Compound concentration 1000.0 nM
[7] = molecular target: Serine/threonine-protein kinase ULK1 (Homo sapiens) (UniProt O75385); settings: Compound concentration 1000.0 nM
[8] = molecular target: Serine/threonine-protein kinase DCLK3 (Homo sapiens) (UniProt Q9C098); settings: Compound concentration 1000.0 nM
[9] = molecular target: Dual specificity mitogen-activated protein kinase kinase 7 (Homo sapiens) (UniProt O14733); settings: Compound concentration 1000.0 nM
[10] = molecular target: Melanocyte-stimulating hormone receptor (Homo sapiens) (UniProt Q01726); experiment: MC1 CEREP ligand profiling; settings: Compound concentration 10.0 uM
[11] = molecular target: Serine/threonine-protein kinase PAK 4 (Homo sapiens) (UniProt O96013); settings: Compound concentration 1000.0 nM
[12] = molecular target: Cyclin-dependent kinase 19 (Homo sapiens) (UniProt Q9BWU1); settings: Compound concentration 1000.0 nM
[13] = molecular target: Leukotriene B4 receptor 1 (Homo sapiens, UniProt Q15722); experiment: LTB4 (h) (BLT1) CEREP ligand profiling
[14] = molecular target: Calcium/calmodulin-dependent protein kinase type II subunit alpha (Homo sapiens) (UniProt Q9UQM7); experiment: CaMK2alpha (h) CEREP ligand profiling; settings: Compound concentration 10.0 uM
[15] = molecular target: Serine/threonine-protein kinase SIK1 (Homo sapiens) (UniProt P57059); settings: Compound concentration 1000.0 nM
[16] = molecular target: Tyrosine-protein kinase Mer (Homo sapiens) (UniProt Q12866); settings: Compound concentration 1000.0 nM
[17] = system: Receptor-type tyrosine-protein kinase FLT3 (Homo sapiens), P36888 [UNDEFINED MUTATION]; settings: Compound concentration 1000.0 nM
[18] = molecular target: Mitogen-activated protein kinase kinase kinase 19 (Homo sapiens) (UniProt Q56UN5); settings: Compound concentration 1000.0 nM
[19] = system: Phosphatidylinositol 4,5-bisphosphate 3-kinase catalytic subunit alpha isoform (Homo sapiens), P42336 [I800L]; settings: Compound concentration 1000.0 nM
[20] = molecular target: Casein kinase I isoform gamma-1 (Homo sapiens) (UniProt Q9HCP0); settings: Compound concentration 1000.0 nM
[21] = molecular target: Receptor-interacting serine/threonine-protein kinase 4 (Homo sapiens) (UniProt P57078); settings: Compound concentration 1000.0 nM
[22] = system: Mast/stem cell growth factor receptor Kit (Homo sapiens), P10721 [D816H]; settings: Compound concentration 1000.0 nM
[23] = molecular target: Growth hormone secretagogue receptor type 1 (Homo sapiens) (UniProt Q92847); experiment: Ghrelin (h) (GHS) CEREP ligand profiling; settings: Compound concentration 10.0 uM
[24] = molecular target: Mitogen-activated protein kinase 6 (Homo sapiens) (UniProt Q16659); settings: Compound concentration 1000.0 nM
[25] = molecular target: Histamine H2 receptor (Homo sapiens) (UniProt P25021); experiment: H2 (h) CEREP ligand profiling; settings: Compound concentration 10.0 uM
[26] = molecular target: Proto-oncogene tyrosine-protein kinase ROS (Homo sapiens) (UniProt P08922); settings: Compound concentration 1000.0 nM
[27] = molecular target: Tyrosine-protein kinase Lyn (Homo sapiens) (UniProt P07948); experiment: Lyn kinase (h) CEREP ligand profiling; settings: Compound concentration 10.0 uM
[28] = molecular target: Insulin receptor-related protein (Homo sapiens) (UniProt P14616); settings: Compound concentration 1000.0 nM
[29] = molecular target: Cyclin-dependent kinase 4 (Homo sapiens) (UniProt P11802); settings: Compound concentration 1000.0 nM
[30] = molecular target: Transient receptor potential cation channel subfamily M member 6 (Homo sapiens) (UniProt Q9BX84); settings: Compound concentration 1000.0 nM
[31] = molecular target: Serine/threonine-protein kinase/endoribonuclease IRE1 (Homo sapiens) (UniProt O75460); settings: Compound concentration 1000.0 nM
[32] = molecular target: 5-hydroxytryptamine receptor 2B (Homo sapiens) (UniProt P41595); experiment: 5-HT2B (h) (agonist site/DOI) CEREP ligand profiling; settings: Compound concentration 10.0 uM
CYP3A4 = CYP3A4 (Homo sapiens, UniProt P08684); experiment: CYP3A4 inhibition CEREP ligand profiling; settings: compound concentration 10 uM
[33] = molecular target: Cyclin-dependent kinase-like 2 (Homo sapiens) (UniProt Q92772); settings: Compound concentration 1000.0 nM
[34] = molecular target: Carbonic anhydrase 2 (Homo sapiens) (UniProt P00918); experiment: Carbonic anhydrase II (h) CEREP ligand profiling; settings: Compound concentration 10.0 uM
[35] = molecular target: T1, 5-hydroxytryptamine receptor 2C (Homo sapiens) (UniProt P28335); experiment: 5-HT2C (h) CEREP ligand profiling; settings: Compound concentration 10.0 uM
T1 sequence (whole entry): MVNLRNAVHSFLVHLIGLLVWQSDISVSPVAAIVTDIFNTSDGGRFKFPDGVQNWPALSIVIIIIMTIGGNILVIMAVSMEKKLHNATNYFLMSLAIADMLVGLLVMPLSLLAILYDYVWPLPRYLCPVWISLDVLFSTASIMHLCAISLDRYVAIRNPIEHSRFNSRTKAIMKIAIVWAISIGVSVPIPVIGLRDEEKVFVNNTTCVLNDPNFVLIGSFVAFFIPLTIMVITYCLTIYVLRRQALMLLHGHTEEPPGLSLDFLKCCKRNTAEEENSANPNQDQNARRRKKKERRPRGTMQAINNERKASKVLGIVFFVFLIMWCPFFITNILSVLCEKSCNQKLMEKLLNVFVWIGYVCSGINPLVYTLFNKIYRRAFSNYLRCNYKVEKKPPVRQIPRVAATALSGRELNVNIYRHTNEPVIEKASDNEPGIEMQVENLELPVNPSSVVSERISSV

[36] = molecular target: Beta-adrenergic receptor kinase 1 (Homo sapiens) (UniProt P25098); settings: Compound concentration 1000.0 nM
[37] = molecular target: 1-phosphatidylinositol 3-phosphate 5-kinase (Homo sapiens) (UniProt Q9Y2I7); settings: Compound concentration 1000.0 nM
[38] = molecular target: Endothelin-1 receptor (Homo sapiens) (UniProt P25101); experiment: ETA (h) CEREP ligand profiling; settings: Compound concentration 10.0 uM

Sequence of Leukotriene B4 receptor 1 (Q15722 whole entry): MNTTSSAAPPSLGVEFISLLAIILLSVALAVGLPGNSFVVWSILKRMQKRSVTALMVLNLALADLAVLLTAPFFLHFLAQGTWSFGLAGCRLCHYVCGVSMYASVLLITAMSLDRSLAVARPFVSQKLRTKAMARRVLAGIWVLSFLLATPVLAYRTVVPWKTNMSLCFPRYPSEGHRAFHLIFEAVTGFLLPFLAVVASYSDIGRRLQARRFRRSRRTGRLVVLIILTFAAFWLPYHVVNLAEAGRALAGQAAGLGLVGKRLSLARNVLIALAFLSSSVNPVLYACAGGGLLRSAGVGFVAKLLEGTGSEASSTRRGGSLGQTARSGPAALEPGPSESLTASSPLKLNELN
Sequence of Dual specificity mitogen-activated protein kinase kinase 7 (Homo sapiens) (O14733 whole entry): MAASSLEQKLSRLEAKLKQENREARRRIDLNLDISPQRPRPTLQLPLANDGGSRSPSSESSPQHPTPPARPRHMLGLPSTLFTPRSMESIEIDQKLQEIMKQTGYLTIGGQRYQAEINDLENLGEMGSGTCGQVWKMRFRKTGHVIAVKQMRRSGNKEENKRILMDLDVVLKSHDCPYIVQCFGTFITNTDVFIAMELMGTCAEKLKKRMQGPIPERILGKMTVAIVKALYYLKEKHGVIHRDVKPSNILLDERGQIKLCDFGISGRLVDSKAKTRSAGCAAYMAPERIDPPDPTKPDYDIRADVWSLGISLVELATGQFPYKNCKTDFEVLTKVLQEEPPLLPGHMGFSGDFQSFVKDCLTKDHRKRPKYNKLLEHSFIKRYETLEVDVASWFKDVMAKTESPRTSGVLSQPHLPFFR
Sequence of Cyclin-dependent kinase 19 (Homo sapiens) (Q9BWU1 whole entry): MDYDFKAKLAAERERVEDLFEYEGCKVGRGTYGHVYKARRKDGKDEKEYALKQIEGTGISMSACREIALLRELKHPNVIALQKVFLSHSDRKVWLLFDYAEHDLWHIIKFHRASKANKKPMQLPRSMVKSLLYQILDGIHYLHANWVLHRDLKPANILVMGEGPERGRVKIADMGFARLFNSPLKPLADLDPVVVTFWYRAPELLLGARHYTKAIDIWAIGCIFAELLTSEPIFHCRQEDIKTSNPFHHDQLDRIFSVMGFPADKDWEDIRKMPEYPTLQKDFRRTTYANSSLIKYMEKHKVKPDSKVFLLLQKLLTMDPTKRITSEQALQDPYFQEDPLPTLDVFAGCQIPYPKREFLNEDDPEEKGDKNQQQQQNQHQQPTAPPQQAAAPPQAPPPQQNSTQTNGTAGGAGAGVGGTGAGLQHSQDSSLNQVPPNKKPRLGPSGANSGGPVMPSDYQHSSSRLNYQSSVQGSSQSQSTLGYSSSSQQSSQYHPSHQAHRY
Sequence of Receptor-type tyrosine-protein kinase FLT3 (Homo sapiens), P36888 [UNDEFINED MUTATION] (P36888 whole entry, looked up, change not shown): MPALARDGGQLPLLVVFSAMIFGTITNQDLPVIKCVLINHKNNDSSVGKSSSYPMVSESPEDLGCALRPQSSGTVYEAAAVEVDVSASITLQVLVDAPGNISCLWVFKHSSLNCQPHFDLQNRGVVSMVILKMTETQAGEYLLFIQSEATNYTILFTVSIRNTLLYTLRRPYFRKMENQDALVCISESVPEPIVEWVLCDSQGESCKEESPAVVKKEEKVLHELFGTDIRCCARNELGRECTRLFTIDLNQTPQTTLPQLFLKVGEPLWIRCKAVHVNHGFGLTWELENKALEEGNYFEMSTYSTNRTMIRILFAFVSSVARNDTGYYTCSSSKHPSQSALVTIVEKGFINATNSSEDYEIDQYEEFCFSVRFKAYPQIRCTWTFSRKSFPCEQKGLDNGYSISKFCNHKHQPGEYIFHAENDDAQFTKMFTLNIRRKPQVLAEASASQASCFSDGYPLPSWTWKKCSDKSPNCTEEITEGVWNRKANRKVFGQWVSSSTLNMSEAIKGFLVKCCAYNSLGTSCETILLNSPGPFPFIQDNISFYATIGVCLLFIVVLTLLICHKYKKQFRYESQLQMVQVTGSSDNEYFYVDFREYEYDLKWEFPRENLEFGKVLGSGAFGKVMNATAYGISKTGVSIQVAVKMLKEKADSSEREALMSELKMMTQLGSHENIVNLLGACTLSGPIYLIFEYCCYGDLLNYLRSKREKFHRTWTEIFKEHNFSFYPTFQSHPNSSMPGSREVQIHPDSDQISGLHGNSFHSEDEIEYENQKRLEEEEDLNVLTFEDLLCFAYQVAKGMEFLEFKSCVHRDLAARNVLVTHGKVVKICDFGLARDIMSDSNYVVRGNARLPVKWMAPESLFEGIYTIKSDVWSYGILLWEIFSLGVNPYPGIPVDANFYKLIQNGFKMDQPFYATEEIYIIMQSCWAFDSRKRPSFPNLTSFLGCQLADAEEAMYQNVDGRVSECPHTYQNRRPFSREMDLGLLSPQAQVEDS
Sequence of Casein kinase I isoform gamma-1 (Homo sapiens) (Q9HCP0 whole entry, looked up, canonical isoform): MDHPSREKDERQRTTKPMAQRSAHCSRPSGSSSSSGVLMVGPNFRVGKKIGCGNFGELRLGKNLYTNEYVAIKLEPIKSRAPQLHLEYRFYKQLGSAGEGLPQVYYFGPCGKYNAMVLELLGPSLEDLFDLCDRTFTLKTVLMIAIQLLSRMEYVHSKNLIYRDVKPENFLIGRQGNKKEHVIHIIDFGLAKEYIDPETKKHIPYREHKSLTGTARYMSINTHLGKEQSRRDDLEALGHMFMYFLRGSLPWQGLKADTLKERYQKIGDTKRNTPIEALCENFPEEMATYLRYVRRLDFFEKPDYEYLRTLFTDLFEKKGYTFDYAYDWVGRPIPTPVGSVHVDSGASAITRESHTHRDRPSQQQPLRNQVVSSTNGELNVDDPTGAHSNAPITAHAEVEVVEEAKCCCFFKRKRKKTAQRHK
Sequence of Transient receptor potential cation channel subfamily M member 6 (Homo sapiens) (Q9BX84 whole entry): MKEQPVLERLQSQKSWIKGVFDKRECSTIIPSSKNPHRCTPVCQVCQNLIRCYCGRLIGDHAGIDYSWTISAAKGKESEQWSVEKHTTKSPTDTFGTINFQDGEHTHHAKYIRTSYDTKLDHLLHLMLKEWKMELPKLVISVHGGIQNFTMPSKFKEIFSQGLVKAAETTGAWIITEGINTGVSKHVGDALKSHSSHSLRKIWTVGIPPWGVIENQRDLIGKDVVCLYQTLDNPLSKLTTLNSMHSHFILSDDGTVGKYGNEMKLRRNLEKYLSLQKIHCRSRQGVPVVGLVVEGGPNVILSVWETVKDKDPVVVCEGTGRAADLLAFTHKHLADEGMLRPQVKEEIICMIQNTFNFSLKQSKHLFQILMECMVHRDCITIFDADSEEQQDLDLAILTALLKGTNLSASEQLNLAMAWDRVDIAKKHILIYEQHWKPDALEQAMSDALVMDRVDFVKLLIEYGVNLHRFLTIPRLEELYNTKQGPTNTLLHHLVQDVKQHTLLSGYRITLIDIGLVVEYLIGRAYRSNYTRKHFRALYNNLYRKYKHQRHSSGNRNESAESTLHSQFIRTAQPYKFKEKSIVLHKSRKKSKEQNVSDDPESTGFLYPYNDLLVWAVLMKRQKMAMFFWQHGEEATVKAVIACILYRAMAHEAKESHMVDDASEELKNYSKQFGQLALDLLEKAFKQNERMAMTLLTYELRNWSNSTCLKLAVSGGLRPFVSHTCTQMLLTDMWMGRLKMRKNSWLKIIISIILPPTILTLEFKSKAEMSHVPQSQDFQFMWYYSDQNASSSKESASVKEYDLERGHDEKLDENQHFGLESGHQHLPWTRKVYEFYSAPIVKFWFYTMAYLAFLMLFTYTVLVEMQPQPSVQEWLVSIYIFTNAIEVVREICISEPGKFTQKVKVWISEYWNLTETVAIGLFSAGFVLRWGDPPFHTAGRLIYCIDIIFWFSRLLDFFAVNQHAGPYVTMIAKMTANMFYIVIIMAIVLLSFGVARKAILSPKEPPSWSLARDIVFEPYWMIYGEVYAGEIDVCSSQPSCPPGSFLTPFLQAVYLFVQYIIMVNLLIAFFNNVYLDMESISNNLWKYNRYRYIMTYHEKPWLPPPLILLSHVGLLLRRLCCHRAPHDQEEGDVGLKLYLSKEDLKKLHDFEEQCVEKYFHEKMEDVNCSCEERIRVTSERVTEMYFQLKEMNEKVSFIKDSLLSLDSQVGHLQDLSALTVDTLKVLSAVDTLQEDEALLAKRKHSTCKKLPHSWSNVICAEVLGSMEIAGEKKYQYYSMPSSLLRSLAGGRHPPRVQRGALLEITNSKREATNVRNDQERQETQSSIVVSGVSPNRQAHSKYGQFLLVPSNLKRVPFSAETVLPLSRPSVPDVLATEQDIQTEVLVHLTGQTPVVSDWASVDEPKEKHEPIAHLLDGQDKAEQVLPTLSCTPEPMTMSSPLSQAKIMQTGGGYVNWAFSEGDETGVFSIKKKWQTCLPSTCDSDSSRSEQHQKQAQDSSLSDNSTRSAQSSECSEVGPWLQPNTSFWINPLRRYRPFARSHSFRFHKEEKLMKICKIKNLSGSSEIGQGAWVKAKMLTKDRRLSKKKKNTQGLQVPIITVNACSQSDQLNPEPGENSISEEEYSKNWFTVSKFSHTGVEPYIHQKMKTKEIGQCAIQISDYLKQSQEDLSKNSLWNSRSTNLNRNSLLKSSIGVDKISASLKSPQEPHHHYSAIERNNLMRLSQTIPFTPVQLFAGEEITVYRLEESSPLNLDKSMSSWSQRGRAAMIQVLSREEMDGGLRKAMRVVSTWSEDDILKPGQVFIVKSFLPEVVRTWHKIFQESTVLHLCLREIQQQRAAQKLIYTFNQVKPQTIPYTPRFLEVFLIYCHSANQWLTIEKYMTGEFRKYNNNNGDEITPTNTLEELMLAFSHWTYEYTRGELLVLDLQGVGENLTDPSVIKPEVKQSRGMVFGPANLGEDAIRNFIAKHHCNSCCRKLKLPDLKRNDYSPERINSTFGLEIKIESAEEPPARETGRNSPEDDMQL
Sequence of Cyclin-dependent kinase 4 (Homo sapiens) (P11802 whole entry): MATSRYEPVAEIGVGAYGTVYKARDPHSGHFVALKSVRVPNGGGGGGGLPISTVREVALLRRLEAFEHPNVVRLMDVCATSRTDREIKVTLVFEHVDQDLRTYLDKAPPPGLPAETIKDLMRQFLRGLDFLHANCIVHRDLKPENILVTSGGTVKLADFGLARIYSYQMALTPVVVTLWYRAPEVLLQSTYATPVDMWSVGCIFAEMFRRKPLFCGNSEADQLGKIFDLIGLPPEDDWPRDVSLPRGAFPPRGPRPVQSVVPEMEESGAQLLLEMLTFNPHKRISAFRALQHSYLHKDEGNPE

COc1ccc2cc(OCC3(C(=O)O)CN(C(=O)c4ccc(F)cc4)C3)ccc2c1 [PF-04418948]
residual activity [1]: 71% | residual activity [2]: 93% | residual activity [3]: 75% | residual activity [4]: 83% | residual activity [5]: 87% | residual activity [6]: 87% | residual activity [7]: 92% | residual activity [8]: 98% | residual activity [9]: 79% | inhibition [10]: 6% | residual activity [11]: 94% | residual activity [12]: 95% | IC50 [13]: 9.7 µM | Ki [13]: 4.8 µM | inhibition ([13]; Compound concentration 10.0 uM): 51% | inhibition [14]: 5% | residual activity [15]: 97% | residual activity [16]: 80% | residual activity [17]: 91% | residual activity [18]: 82% | residual activity [19]: 90% | residual activity [20]: 94% | residual activity [21]: 66% | residual activity [22]: 82% | inhibition [23]: -6% | residual activity [24]: 88% | inhibition [25]: 3% | residual activity [26]: 81% | inhibition [27]: 2% | residual activity [28]: 67% | residual activity [29]: 90% | residual activity [30]: 98% | residual activity [31]: 80% | inhibition [32]: 13% | inhibition at 10 µM (CYP3A4): 17% (not active) | residual activity [33]: 89% | inhibition [34]: 9% | inhibition [35]: 8% | residual activity [36]: 72% | residual activity [37]: 91% | inhibition [38]: 3%
